Test results reported in patent US6395771B1, “Paclitaxel derivatives for the treatment of cancer” (Dabur Research Foundation, priority 2000, dated 2002).

Assays:
[1] = test system: cervical cancer cells (SiHa); assay: MTT cytotoxicity assay, cervical cancer cells; type: cell-based; design: key: —: Not active; =PT: Activity equivalent to Paclitaxel; <PT: Activity less than Paclitaxel; details: 24 to 96 hours, potency over paclitaxel
Experimental: (§1) In vitro cytotoxic activity of novel paclitaxel derivatives was determined by performing the MTT cytotoxicity assay (Mosmann T., J Immunological Methods, 65:55; 1983). Briefly, the cultured tumor cells were separately seeded in a 96-well culture plate and co-incubated with paclitaxel or its derivatives dissolved in methanol, dimethyl formamide, dimethyl sulfoxide or isopropyl alcohol with relevant controls at 37° C. in a CO2 incubator. After 24 to 96 hours, the assay was terminated and percent cyotoxicities calculated.

[2] = test system: ovarian cancer cells (PA-1); assay: MTT cytotoxicity assay, ovarian cancer cells; type: cell-based; design: key: —: Not active; =PT: Activity equivalent to Paclitaxel; <PT: Activity less than Paclitaxel; details: PA-1 ovarian cancer cells, 24 to 96 hours, potency over paclitaxel
Experimental: as §1

[3] = test system: lung cancer cells (L132); assay: MTT cytotoxicity assay, lung cancer cells; type: cell-based; design: key: —: Not active; =PT: Activity equivalent to Paclitaxel; <PT: Activity less than Paclitaxel; details: 24 to 96 hours, potency over paclitaxel
Experimental: as §1

[4] = test system: breast cancer cells (HBL100); assay: MTT cytotoxicity assay, breast cancer cells; type: cell-based; design: key: —: Not active; =PT: Activity equivalent to Paclitaxel; <PT: Activity less than Paclitaxel; details: 24 to 96 hours, potency over paclitaxel
Experimental: as §1

[5] = test system: leukemia cells (MOLT-4); assay: MTT cytotoxicity assay, leukemia cells; type: cell-based; design: key: —: Not active; =PT: Activity equivalent to Paclitaxel; <PT: Activity less than Paclitaxel; details: MOLT-4 leukemia cells, 24 to 96 hours, potency over paclitaxel
Experimental: as §1

[6] = test system: mice; details: cited from earlier work

Structure (SMILES): CC(=O)OC1C(=O)C2(C)C(O)CC3OCC3(OC(C)=O)C2C(OC(=O)c2ccccc2)C2(O)CC(OC(=O)C(OC(=O)CC(C)(C)C(=O)O)C(NC(=O)c3ccccc3)c3ccccc3)C(C)=C1C2(C)C (stereo not drawn) [AV-82B]
- Potency with respect to paclitaxel, SiHa [1]: >25.0
- Potency with respect to paclitaxel, PA-1 [2]: —
- Potency with respect to paclitaxel, L132 [3]: —
- Potency with respect to paclitaxel, HBL100 [4]: >170
- Potency with respect to paclitaxel, MOLT-4 [5]: —

Structure (SMILES): CC(=O)OC1C(=O)C2(C)C(O)CC3OCC3(OC(C)=O)C2C(OC(=O)c2ccccc2)C2(O)CC(OC(=O)C(OC(=O)CSc3ccccc3)C(NC(=O)c3ccccc3)c3ccccc3)C(C)=C1C2(C)C (stereo not drawn) [AV-150S]
- Potency with respect to paclitaxel, SiHa [1]: —
- Potency with respect to paclitaxel, PA-1 [2]: =PT
- Potency with respect to paclitaxel, L132 [3]: —
- Potency with respect to paclitaxel, HBL100 [4]: —
- Potency with respect to paclitaxel, MOLT-4 [5]: —

Structure (SMILES): CC(=O)OC1C(=O)C2(C)C(O)CC3OCC3(OC(C)=O)C2C(OC(=O)c2ccccc2)C2(O)CC(OC(=O)C(OC(=O)c3ccc(F)cc3F)C(NC(=O)c3ccccc3)c3ccccc3)C(C)=C1C2(C)C (stereo not drawn) [AV-103S]
- Potency with respect to paclitaxel, SiHa [1]: 1.4
- Potency with respect to paclitaxel, PA-1 [2]: —
- Potency with respect to paclitaxel, L132 [3]: —
- Potency with respect to paclitaxel, MOLT-4 [5]: —

Structure (SMILES): CC(=O)OC1C(=O)C2(C)C(O)CC3OCC3(OC(C)=O)C2C(OC(=O)c2ccccc2)C2(O)CC(OC(=O)C(OC(=O)CNC(=O)CNC(=O)OC(C)(C)C)C(NC(=O)c3ccccc3)c3ccccc3)C(C)=C1C2(C)C (stereo not drawn) [AV-4S]
- Potency with respect to paclitaxel, SiHa [1]: —
- Potency with respect to paclitaxel, PA-1 [2]: 9.5
- Potency with respect to paclitaxel, L132 [3]: 56.3
- Potency with respect to paclitaxel, HBL100 [4]: 3.3
- Potency with respect to paclitaxel, MOLT-4 [5]: 13.2

Structure (SMILES): CC(=O)OC1C(=O)C2(C)C(O)CC3OCC3(OC(C)=O)C2C(OC(=O)c2ccccc2)C2(O)CC(OC(=O)C(OC(=O)c3cccc(F)c3F)C(NC(=O)c3ccccc3)c3ccccc3)C(C)=C1C2(C)C (stereo not drawn) [AV-105S]
- Potency with respect to paclitaxel, SiHa [1]: 1.4
- Potency with respect to paclitaxel, PA-1 [2]: —
- Potency with respect to paclitaxel, L132 [3]: —
- Potency with respect to paclitaxel, HBL100 [4]: 3.8
- Potency with respect to paclitaxel, MOLT-4 [5]: —

Structure (SMILES): CC(=O)OC(C)C(=O)OC1CC2OCC2(OC(C)=O)C2C(OC(=O)c3ccccc3)C3(O)CC(OC(=O)C(OC(=O)OCC(Cl)(Cl)Cl)C(NC(=O)c4ccccc4)c4ccccc4)C(C)=C(C(OC(C)=O)C(=O)C12C)C3(C)C (stereo not drawn) [AV-126S]
- Potency with respect to paclitaxel, SiHa [1]: —
- Potency with respect to paclitaxel, PA-1 [2]: =PT
- Potency with respect to paclitaxel, L132 [3]: —
- Potency with respect to paclitaxel, HBL100 [4]: —
- Potency with respect to paclitaxel, MOLT-4 [5]: —

Structure (SMILES): CC(=O)O[C@H]1C(=O)[C@@]2(C)[C@H]([C@H](OC(=O)c3ccccc3)[C@]3(O)C[C@H](OC(=O)[C@H](O)[C@@H](NC(=O)c4ccccc4)c4ccccc4)C(C)=C1C3(C)C)[C@]1(OC(C)=O)CO[C@@H]1C[C@@H]2O [paclitaxel, Paclitaxel]
- toxic dose ([6]; administered in the Cremophor vehicle): > 30 mg/kg
- Maximum Tolerated Dose (MTD) ([6]; mice, ip administration): 50 mg/kg

Structure (SMILES): CC(=O)OC1C(=O)C2(C)C(O)CC3OCC3(OC(C)=O)C2C(OC(=O)c2ccccc2)C2(O)CC(OC(=O)C(OC(=O)C(OC(C)=O)c3ccccc3)C(NC(=O)c3ccccc3)c3ccccc3)C(C)=C1C2(C)C (stereo not drawn) [AV-125S]
- Potency with respect to paclitaxel, SiHa [1]: —
- Potency with respect to paclitaxel, PA-1 [2]: =PT
- Potency with respect to paclitaxel, L132 [3]: —
- Potency with respect to paclitaxel, HBL100 [4]: —
- Potency with respect to paclitaxel, MOLT-4 [5]: —

Structure (SMILES): CC(=O)CC(=O)OC(C(=O)OC1CC2(O)C(OC(=O)c3ccccc3)C3C4(OC(C)=O)COC4CC(O)C3(C)C(=O)C(OC(C)=O)C(=C1C)C2(C)C)C(NC(=O)c1ccccc1)c1ccccc1 (stereo not drawn) [AV-147A]
- Potency with respect to paclitaxel, SiHa [1]: —
- Potency with respect to paclitaxel, PA-1 [2]: =PT
- Potency with respect to paclitaxel, L132 [3]: —
- Potency with respect to paclitaxel, HBL100 [4]: —
- Potency with respect to paclitaxel, MOLT-4 [5]: —

Structure (SMILES): CC(=O)OC1C(=O)C2(C)C(O)CC3OCC3(OC(C)=O)C2C(OC(=O)c2ccccc2)C2(O)CC(OC(=O)C(OC(=O)c3cccc(C(F)(F)F)c3)C(NC(=O)c3ccccc3)c3ccccc3)C(C)=C1C2(C)C (stereo not drawn) [AV-86B]
- Potency with respect to paclitaxel, SiHa [1]: 2.5
- Potency with respect to paclitaxel, PA-1 [2]: —
- Potency with respect to paclitaxel, HBL100 [4]: <PT
- Potency with respect to paclitaxel, MOLT-4 [5]: —
